# Source: patent US7307081B2, “Piperidine derivatives useful as CCR5 antagonists” (priority 2002, dated 2007)
# Test system: HIV-1 luciferase reporter virus (ADA-Luc-FL, YU-2-Luc-FL, HxB-Luc-FL) in U87-CD4-CCR5 cells
# Experiment: Luciferase Replication Assay (HIV replication)
# Format: cell-based
# Settings: Human immunodeficiency virus 1, U87/CD4/CCR5, 72 h, read-out: HIV Replication (Luciferase) IC50 nM, U87-CD4-CCR5 cells, replication-competent luciferase reporter virus, cultures incubated 3 days
# Experimental: Luciferase Replication Assay:
# Plasmids encoding the full length genome of HIV-1 pNL-4-Luc with the gp 120 V-3 loop replaced by the Bgl II fragment of HIV-1 ADA, YU-2 or HxB (ADA-Luc-FL, YU-2-Luc-FL and HxB-Luc-FL) are obtained from Dr. Susan Pontow (Washington University, St. Louis Mo.). Replication-competent luciferase reporter virus stocks are generated by transfection of plasmids into 293T cells using Superfect (Qiagen) or Mirus transfection reagents. Viral stocks are collected 48 hours following transfection and titered for luciferase production on U-87-CCR5 or CXCR4 cells. U87-CD4-CCR5 cells (10^4/ well) are plated in 96-well cell culture plates and incubated overnight. Media is removed and replaced with 50 μl of fresh culture media (DMEM, 10% FCS) and 50 μl of compound diluted in culture medium. Cells are incubated with compound at 37° C. for 1 hour. The resultant supernatant is removed and replaced with 20 μl of media containing compound and infected with an equal volume of diluted or undiluted virus stock at 37° C. for 3-4 hours. The cells are washed once with DMEM, and 200 μl of media containing compound is added. The cultures are incubated for 3 days, the cells lysed in luciferase lysis buffer (Promega, Madison, Wis.) and transferred to Immulon plates (Dynex Technologies, Chantilly Va.). An equal volume of luciferase substrate (Promega, Madison Wis.) is added to lysates and the plates read immediately in a Wallac Luminometer. Fifty and ninety percent inhibitory concentrations are determined using GraphPad PRISM software.
row,SMILES,IC50 [nM]
1,Cc1ncnc(C)c1C(=O)N1CCC(C)(N2CCN(C(Cc3ccccc3)C3CCCN(S(=O)(=O)C4CC4)C3)[C@@H](C)C2)CC1 (mixture of isomers) [Example 1],2
2,COc1ccc(CN2CCCC(C(Cc3ccccc3)N3CCN(C4(C)CCN(C(=O)c5c(C)ncnc5C)CC4)C[C@@H]3C)C2)cc1 (mixture of isomers) [Example 2],25
3,Cc1ncnc(C)c1C(=O)N1CCC(C)(N2CCN(C(Cc3ccccc3)C3CCCN(S(=O)(=O)c4cccc(Cl)c4)C3)[C@@H](C)C2)CC1 (mixture of isomers) [Example 3],2
4,Cc1ncnc(C)c1C(=O)N1CCC(C)(N2CCN(C(Cc3ccccc3)C3CCCNC3)[C@@H](C)C2)CC1 (mixture of isomers) [Example 4],4
5,Cc1ncnc(C)c1C(=O)N1CCC(C)(N2CCN([C@@H](c3cccc(F)c3)C3CCN(S(=O)(=O)C4CC4)C3)[C@@H](C)C2)CC1 (mixture of isomers) [Example 11],0.3
6,Cc1ncnc(C)c1C(=O)N1CCC(C)(N2CCN(C(c3ccccc3)C3CCCN(S(C)(=O)=O)C3)[C@@H](C)C2)CC1 (stereo partly shown) [Example 7],0.5
7,COc1ccc(CN2CCCC([C@H](c3ccccc3)N3CCN(C4(C)CCN(C(=O)c5c(C)ncnc5C)CC4)C[C@@H]3C)C2)cc1 (stereo partly shown) [Example 8],1.6
8,Cc1ncnc(C)c1C(=O)N1CCC(C)(N2CCN([C@@H](c3ccccc3)C3CCCNC3)[C@@H](C)C2)CC1 (stereo partly shown) [Example 9],11
9,Cc1ncnc(C)c1C(=O)N1CCC(C)(N2CCN(C(CC3CCN(S(=O)(=O)C4CC4)CC3)c3cccc(F)c3)[C@@H](C)C2)CC1 (stereo partly shown) [Example 10],3
10,Cc1ncnc(C)c1C(=O)N1CCC(C)(N2CCN([C@@H](c3cccc(F)c3)C3CN(S(=O)(=O)C4CC4)C3)[C@@H](C)C2)CC1 [Example 12],1
11,Cc1ncnc(C)c1C(=O)N1CCC(C)(N2CCN([C@@H](c3cccc(F)c3)C3CN(S(=O)(=O)c4ccccc4)C3)[C@@H](C)C2)CC1 [Example 13],0.7
12,Cc1ncnc(C)c1C(=O)N1CCC(C)(N2CCN([C@@H](c3cccc(F)c3)C3CN(S(C)(=O)=O)C3)[C@@H](C)C2)CC1 [Example 14],2
13,Cc1ncnc(C)c1C(=O)N1CCC(C)(N2CCN([C@@H](c3cccc(F)c3)C3CN(C(=O)C4CC4)C3)[C@@H](C)C2)CC1 [Example 15],5
14,Cc1ncnc(C)c1C(=O)N1CCC(C)(N2CCN([C@@H](Cc3ccccc3)C3CN(S(=O)(=O)C4CC4)C3)[C@@H](C)C2)CC1 [Example 16],4
15,Cc1ncnc(C)c1C(=O)N1CCC(C)(N2CCN([C@@H](Cc3ccccc3)C3CN(S(=O)(=O)c4ccccc4)C3)[C@@H](C)C2)CC1 [Example 17],0.4
16,Cc1ncnc(C)c1C(=O)N1CCC(C)(N2CCN([C@@H](Cc3ccccc3)C3CN(S(C)(=O)=O)C3)[C@@H](C)C2)CC1 [Example 18],17
17,Cc1ncnc(C)c1C(=O)N1CCC(C)(N2CCN([C@@H](Cc3ccccc3)C3CN(C(=O)C4CC4)C3)[C@@H](C)C2)CC1 [Example 19],13

# Same assay, conditions: read-out: HIV Replication (Luciferase) IC50 nM; U87-CD4-CCR5 cells, replication-competent luciferase reporter virus, cultures incubated 3 days
row,SMILES,IC50 [nM]
1,Cc1ncnc(C)c1C(=O)N1CCC(C)(N2CCN(C(c3ccccc3)C3CCCN(S(=O)(=O)C4CC4)C3)[C@@H](C)C2)CC1 (stereo partly shown) [Example 5],15
2,Cc1ncnc(C)c1C(=O)N1CCC(C)(N2CCN(C(c3ccccc3)C3CCCN(S(=O)(=O)C4CC4)C3)[C@@H](C)C2)CC1 (stereo partly shown) [Example 6],0.7
